Measurements: ChEMBL document CHEMBL3994619, “Inhibition of invasion by N-trans-feruloyloctopamine via AKT, p38MAPK and EMT related signals in hepatocellular carcinoma cells” (Bioorg Med Chem Lett, 2017)
Calls of active or inactive are those of the source. The rule behind the calls is not given here.

What was measured:
Huh-7 [1] = assay: Antiproliferative activity against human HuH7 cells assessed as reduction in cell viability after 48 hrs by CCK8 assay; assay type: functional, cell-based; details: Huh-7, 48 h
HCCLM3 [2] = assay: Antiproliferative activity against human HCCLM3 cells assessed as reduction in cell viability after 48 hrs by CCK8 assay; assay type: functional, cell-based; details: HCCLM3, 48 h
HCCLM3 [3] = assay: Antimigratory activity in human HCCLM3 cells assessed as wound closure at 2 mM after 48 hrs by inverted microscopic method; assay type: functional, cell-based
Huh-7 [4] = assay: Antimigratory activity in human HuH7 cells assessed as wound closure at 2 mM after 48 hrs by inverted microscopic method; assay type: functional, cell-based
Huh-7 [5] = assay: Anti-invasive activity in human HuH7 cells assessed as invasive cell count at 2 mM after 48 hrs using Giemsa dye by matrigel based microscopic method (reference value: 36 +/- 6); assay type: functional
HCCLM3 [6] = assay: Anti-invasive activity in human HCCLM3 cells assessed as invasive cell count at 2 mM after 48 hrs using Giemsa dye by matrigel based microscopic method (reference value: 64.7 +/- 9.3); assay type: functional
[7] = molecular target: Transcription factor p65 (Homo sapiens) (UniProt Q04206); assay: Effect on p65 phosphorylation in human HCCLM3 cells at 2 mM after 48 hrs by western blot analysis; assay type: cell-based
Chain of Transcription factor p65 (Homo sapiens) (Q04206 whole entry): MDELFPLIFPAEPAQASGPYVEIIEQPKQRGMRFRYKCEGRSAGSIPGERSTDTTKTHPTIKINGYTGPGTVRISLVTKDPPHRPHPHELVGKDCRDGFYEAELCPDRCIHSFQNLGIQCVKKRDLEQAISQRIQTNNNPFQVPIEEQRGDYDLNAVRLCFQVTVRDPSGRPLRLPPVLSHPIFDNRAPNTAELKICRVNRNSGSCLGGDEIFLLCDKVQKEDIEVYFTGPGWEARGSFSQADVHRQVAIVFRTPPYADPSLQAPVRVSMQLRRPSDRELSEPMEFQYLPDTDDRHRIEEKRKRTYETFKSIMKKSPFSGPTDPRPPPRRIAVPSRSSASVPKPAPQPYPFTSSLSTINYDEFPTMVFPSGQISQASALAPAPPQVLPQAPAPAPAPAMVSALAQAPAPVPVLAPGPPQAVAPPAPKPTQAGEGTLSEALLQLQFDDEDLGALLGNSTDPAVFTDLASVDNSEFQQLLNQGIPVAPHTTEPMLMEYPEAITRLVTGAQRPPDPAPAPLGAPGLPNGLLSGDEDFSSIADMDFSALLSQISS

[8] = molecular target: Mitogen-activated protein kinase; ERK1/ERK2 (Homo sapiens) (UniProt P27361+P28482); assay: Effect on ERK1/2 phosphorylation in human HCCLM3 cells at 2 mM after 48 hrs by western blot analysis; assay type: cell-based
Chain of Mitogen-activated protein kinase; ERK1/ERK2 (Homo sapiens) (P27361 whole entry, looked up): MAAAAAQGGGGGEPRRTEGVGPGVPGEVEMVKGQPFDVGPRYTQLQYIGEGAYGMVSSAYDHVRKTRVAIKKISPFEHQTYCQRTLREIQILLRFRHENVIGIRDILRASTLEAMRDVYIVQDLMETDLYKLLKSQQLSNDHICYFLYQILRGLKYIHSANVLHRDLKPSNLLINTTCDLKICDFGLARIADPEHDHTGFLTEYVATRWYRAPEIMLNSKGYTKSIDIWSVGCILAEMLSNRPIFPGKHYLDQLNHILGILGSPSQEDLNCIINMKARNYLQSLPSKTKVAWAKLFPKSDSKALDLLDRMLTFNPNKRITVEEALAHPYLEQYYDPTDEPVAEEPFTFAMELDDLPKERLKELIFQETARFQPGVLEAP
Chain of Mitogen-activated protein kinase; ERK1/ERK2 (Homo sapiens) (P28482 whole entry, looked up): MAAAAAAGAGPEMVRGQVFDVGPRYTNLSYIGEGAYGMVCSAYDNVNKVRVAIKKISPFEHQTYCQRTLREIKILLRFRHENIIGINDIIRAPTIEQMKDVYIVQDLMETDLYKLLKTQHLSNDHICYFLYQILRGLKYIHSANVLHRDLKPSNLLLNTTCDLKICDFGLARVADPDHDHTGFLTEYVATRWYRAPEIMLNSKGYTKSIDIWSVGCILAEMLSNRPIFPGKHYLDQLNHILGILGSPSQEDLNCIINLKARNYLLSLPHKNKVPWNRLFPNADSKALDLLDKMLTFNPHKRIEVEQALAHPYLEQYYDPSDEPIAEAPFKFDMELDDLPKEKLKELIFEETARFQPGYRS

Homo sapiens [9] = organism: Homo sapiens; assay: Reduction in Akt phosphorylation in human HuH7 cells at 2 mM after 48 hrs by western blot analysis; assay type: cell-based
Homo sapiens [10] = organism: Homo sapiens; assay: Reduction in Akt phosphorylation in human HCCLM3 cells at 2 mM after 48 hrs by western blot analysis; assay type: cell-based
[11] = molecular target: T1, MAP kinase p38 (Homo sapiens) (UniProt O15264+Q15759+Q16539+P53778); assay: Reduction in p38 phosphorylation in human HuH7 cells at 2 mM after 48 hrs by western blot analysis; assay type: cell-based
[12] = molecular target: T1, MAP kinase p38 (Homo sapiens); assay: Reduction in p38 phosphorylation in human HCCLM3 cells at 2 mM after 48 hrs by western blot analysis; assay type: cell-based
HCCLM3 [13] = assay: Upregulation of E-cadherin in human HCCLM3 cells after 48 hrs by western blot analysis; assay type: functional, cell-based
HCCLM3 [14] = assay: Downregulation of slug in human HCCLM3 cells at 2 mM after 48 hrs by western blot analysis; assay type: functional, cell-based
HCCLM3 [15] = assay: Cytotoxicity against human HCCLM3 cells after 48 hrs by CCK8 assay; assay type: cell-based; details: hcclm3, 48 h

For `O=c1[nH]cc(F)c(=O)[nH]1` [FLUOROURACIL], the IC50 (Huh-7 [1]) was 2.98 mM and the IC50 (HCCLM3 [2]) was 1.84 mM.
With `COc1cc(/C=C/C(=O)NCC(O)c2ccc(O)cc2)ccc1O` (configuration not stated) the IC50 (Huh-7 [1]) was 1.99 mM, the IC50 (HCCLM3 [2]) was 2.27 mM and the Activity (HCCLM3 [3]) was “inactive”. The Activity (Huh-7 [4]) was “inactive”, the Activity (Huh-7 [5]) was 11.7 and the Activity (HCCLM3 [6]) was 23.3. For the same compound, the Activity [7] was “inactive”, the Activity [8] was “inactive” and the Activity (Homo sapiens [9]) was “Active”. The Activity (Homo sapiens [10]) was “Active”, the Activity [11] was “Active” and the Activity [12] was “Active”. For the same compound, the Activity (HCCLM3 [13]) was “Active”, the Activity (HCCLM3 [14]) was “Active” and the Activity (HCCLM3 [15]) was “Non-Toxic”.
